Converted amounts (≈) assume the structure as drawn. Like-named read-outs stand apart in the source and are kept apart here.
Legend:
[1] = system: Staphylococcus epidermidis (PCI 1200, ATCC12228); assay: broth microdilution MIC assay, Staphylococcus epidermidis; assay type: cell-based; settings: ATCC12228, read-out: Antibacterial activity SE (Staphylococcus epidermidis)
[2] = system: Bacillus subtilis (Marburg strain, ATCC6051); assay: microbe, parasite or virus in culture; assay type: cell-based; settings: ATCC6051, read-out: Antibacterial activity BS (Bacillus substilis)
[3] = system: Staphylococcus aureus MRSA (COL); assay: broth microdilution MIC assay, Staphylococcus aureus MRSA (COL); assay type: cell-based; settings: for MIC: Staphylococcus aureus, MRSA
[4] = system: penicillin-, erythromycin- and tetracycline-resistant Streptococcus pneumoniae (ATCC 700677), ARSP; assay: microbe, parasite or virus in culture; assay type: cell-based; settings: ATCC700677, MIC activity class, read-out: Antibacterial activity ARSP (multi-drug resistant-SP)
[5] = system: Staphylococcus aureus MSSA (Newman); assay: broth microdilution MIC assay, Staphylococcus aureus MSSA (Newman); assay type: cell-based; settings: for MIC: Staphylococcus aureus; for Antibacterial activity Staphylococcus aureus (MSSA): MIC100 class score, broth microdilution
[6] = system: Human hepatocytes (HepaRG cells); assay: human cytotoxicity assay in vitro (CellTiter-Glo), hepatocytes; assay type: cell-based; settings: cytotoxicity class
[7] = system: Mycobacterium smegmatis (mc(2)155, ATCC700084); assay: broth microdilution MIC assay, Mycobacterium smegmatis; settings: MIC activity class
[8] = system: Streptococcus pneumoniae (Chester, ATCC49619); assay: broth microdilution MIC assay, Streptococcus pneumoniae; assay type: cell-based; settings: MIC100 class score, 24 h
[9] = system: vancomycin-resistant Staphylococcus aureus; assay: broth microdilution MIC assay,  MRSA (COL); assay type: cell-based; settings: read-out: MIC for the resistant strain
[10] = read-out: Antibacterial activity MRSA (Staphylococcus aureus MRSA)
[11] = MIC100 class score, broth microdilution, 24 h, read-out: Antibacterial activity Staphylococcus aureus (MRSA)
[12] = 24 h, read-out: Antibacterial activity Staphylococcus aureus (MSSA)
[13] = read-out: Antibacterial activity MSSA (Staphylococcus aureus MSSA)
[14] = 24 h, read-out: Antibacterial activity Staphylococcus aureus (MRSA)
[15] = MIC100 class score, broth microdilution, 24 h

Row | Structure (SMILES) | MIC [1] [µg/mL] | MIC [2] [µg/mL] | MIC [3, 10] [µg/mL] | MIC [3, 11] [µg/mL] | MIC [4] [µg/mL] | MIC [5, 12] [µg/mL] | MIC [5, 13] [µg/mL] | cytotoxicity cell line H (hepatocytes) [6] | MIC [3, 14] [µg/mL] | Antibacterial activity Staphylococcus aureus (MRSA) [3, 15] | Antibacterial activity Staphylococcus aureus (MSSA) ([5]; 24 h) | Antibacterial activity MS (Mycobacterium smegmatis) [7] | Antibacterial activity Streptococcus pneumoniae [8] | MIC [9] [µg/mL]
1 | Cc1[nH]c(-c2ccc(-c3ccc(Cl)c(C(F)(F)F)c3)o2)nc1-c1ccccc1 [Compound 39] | 1 to 3 (≈ 2.48 to 7.45 µM) | 3 to 10 (≈ 7.45 to 24.8 µM) | 3 to 10 (≈ 7.45 to 24.8 µM) | 3 to 10 (≈ 7.45 to 24.8 µM) | 2 to 5 (≈ 4.97 to 12.4 µM) | 3 to 10 (≈ 7.45 to 24.8 µM) | 1 to 3 (≈ 2.48 to 7.45 µM) |  |  |  |  |  |  | 
2 | Cc1nc(-c2ccc(-c3ccc(Cl)c(OC(F)(F)F)c3)o2)[nH]c1-c1ccccc1 [Compound 41] | 11 to 201 (≈ 26.3 to 480 µM) | 3 to 10 (≈ 7.16 to 23.9 µM) | 3 to 10 (≈ 7.16 to 23.9 µM) |  | < 1 | 3 to 10 (≈ 7.16 to 23.9 µM) | 3 to 10 (≈ 7.16 to 23.9 µM) | 2 | 3 to 10 (≈ 7.16 to 23.9 µM) |  |  |  |  | 
3 | Cc1nc(-c2ccc(-c3ccc(Cl)c(OC(F)(F)F)c3)o2)[nH]c1-c1ccc(F)cc1 [Compound 43] | 20 to 50 (≈ 45.8 to 114 µM) | 3 to 10 (≈ 6.87 to 22.9 µM) | 11 to 201 (≈ 25.2 to 460 µM) |  | < 1 |  | 3 to 10 (≈ 6.87 to 22.9 µM) | 3 |  | 2 (MIC100 of 11-201 μg/ml) | 3 (MIC100 of 3-10 μg/ml) |  |  | 
4 | Cc1[nH]c(-c2ccc(-c3ccc(C(F)(F)F)cc3)o2)nc1-c1ccccc1 [Compound 45] | 3 to 10 (≈ 8.14 to 27.1 µM) | 3 to 10 (≈ 8.14 to 27.1 µM) | 11 to 201 (≈ 29.9 to 546 µM) | 3 to 10 (≈ 8.14 to 27.1 µM) | 2 to 5 (≈ 5.43 to 13.6 µM) | 3 to 10 (≈ 8.14 to 27.1 µM) | 3 to 10 (≈ 8.14 to 27.1 µM) |  |  |  |  |  |  | 
5 | Cc1[nH]c(-c2ccc(-c3ccc(C(F)(F)F)cc3)o2)nc1-c1ccc(Cl)cc1 [Compound 47] | 3 to 10 (≈ 7.45 to 24.8 µM) | 3 to 10 (≈ 7.45 to 24.8 µM) | 3 to 10 (≈ 7.45 to 24.8 µM) |  | < 1 |  | 1 to 3 (≈ 2.48 to 7.45 µM) |  |  | 3 (MIC100 of 3-10 μg/ml) |  | 3 (MIC100 of 3-10 μg/ml) |  | 
6 | Cc1[nH]c(-c2ccc(-c3ccc(OC(F)(F)F)cc3)o2)nc1-c1ccc(Cl)cc1 [Compound 48] | 11 to 201 (≈ 26.3 to 480 µM) | 3 to 10 (≈ 7.16 to 23.9 µM) | 3 to 10 (≈ 7.16 to 23.9 µM) |  | < 1 |  | 3 to 10 (≈ 7.16 to 23.9 µM) | 2 |  |  | 3 (MIC100 of 3-10 μg/ml) |  |  | 
7 | Cc1[nH]c(-c2ccc(-c3ccc(OC(F)(F)F)cc3Cl)o2)nc1-c1ccc(F)cc1 [Compound 51] | 20 to 50 (≈ 45.8 to 114 µM) | 3 to 10 (≈ 6.87 to 22.9 µM) | 20 to 50 (≈ 45.8 to 114 µM) |  | 2 to 5 (≈ 4.58 to 11.4 µM) |  | 11 to 201 (≈ 25.2 to 460 µM) | 3 |  |  | 2 (MIC100 of 11-201 μg/ml) |  | 3 (MIC100 of 2-5 μg/ml) | 
8 | Cc1[nH]c(-c2ccc(-c3cccc(F)c3C)o2)nc1-c1ccccc1 [Compound 60] | 20 to 50 (≈ 60.2 to 150 µM) | 3 to 10 (≈ 9.03 to 30.1 µM) | 20 to 50 (≈ 60.2 to 150 µM) |  | 2 to 5 (≈ 6.02 to 15 µM) | 3 to 10 (≈ 9.03 to 30.1 µM) | 3 to 10 (≈ 9.03 to 30.1 µM) | 3 | 20 to 50 (≈ 60.2 to 150 µM) |  |  | 2 (MIC100 of 11-201 μg/ml) |  | 
9 | FC(F)(F)Oc1ccccc1-c1ccc(-c2nc(Cl)c(-c3ccccc3)[nH]2)o1 [Compound 64] | 20 to 50 (≈ 49.4 to 124 µM) | 20 to 50 (≈ 49.4 to 124 µM) | 20 to 50 (≈ 49.4 to 124 µM) |  | 2 to 5 (≈ 4.94 to 12.4 µM) |  | 3 to 10 (≈ 7.41 to 24.7 µM) | 3 |  |  | 2 (MIC100 of 11-201 μg/ml) |  |  | 
10 | Cc1ccccc1-c1c[nH]c(-c2ccc(-c3ccccc3OC(F)(F)F)o2)n1 [Compound 66] | 20 to 50 (≈ 52 to 130 µM) | 3 to 10 (≈ 7.81 to 26 µM) | 11 to 201 (≈ 28.6 to 523 µM) |  | 2 to 5 (≈ 5.2 to 13 µM) |  | 3 to 10 (≈ 7.81 to 26 µM) | 3 |  | 2 (MIC100 of 11-201 μg/ml) | 3 (MIC100 of 3-10 μg/ml) | 2 (MIC100 of 11-201 μg/ml) |  | 
11 | FC(F)(F)Oc1ccccc1-c1ccc(-c2nc(-c3ccc(Cl)cc3Cl)c[nH]2)o1 [Compound 68] | 3 to 10 (≈ 6.83 to 22.8 µM) | 3 to 10 (≈ 6.83 to 22.8 µM) | 11 to 201 (≈ 25 to 458 µM) |  | 2 to 5 (≈ 4.55 to 11.4 µM) |  | 11 to 201 (≈ 25 to 458 µM) | 2 |  |  | 2 (MIC100 of 11-201 μg/ml) |  | 2 (MIC100 of 6-10 μg/ml) | 
12 | Cc1ccccc1-c1cnc(-c2ccc(-c3ccccc3C(F)(F)F)o2)[nH]1 [Compound 69] |  | 20 to 50 (≈ 54.3 to 136 µM) |  |  | 2 to 5 (≈ 5.43 to 13.6 µM) |  | 11 to 201 (≈ 29.9 to 546 µM) | 2 |  | 2 (MIC100 of 11-201 μg/ml) | 3 (MIC100 of 3-10 μg/ml) | 2 (MIC100 of 11-201 μg/ml) |  | 
13 | CN[C@H](CC(C)C)C(=O)N[C@H]1C(=O)N[C@@H](CC(N)=O)C(=O)N[C@H]2C(=O)N[C@H]3C(=O)N[C@H](C(=O)N[C@H](C(=O)O)c4cc(O)cc(O)c4-c4cc3ccc4O)[C@H](O)c3ccc(c(Cl)c3)Oc3cc2cc(c3O[C@@H]2O[C@H](CO)[C@@H](O)[C@H](O)[C@H]2O[C@H]2C[C@](C)(N)[C@H](O)[C@H](C)O2)Oc2ccc(cc2Cl)[C@H]1O [vancomycin, Vancomycin] |  |  |  |  |  |  |  |  |  |  |  |  |  | 20 (≈ 13.8 µM)

Source: US10322110B2, “Imidazole-based antimicrobial agents” (priority 2014, dated 2019)
